This note sets out measurements from US20150157036A1, “Processed Cheese With Natural Antibacterial And Antimycotic Components And Method Of Manufacturing” (KRAFT FOODS GROUP BRANDS LLC, priority 2013, published 2015).

The subject of series [1] is mold cocktail of Phoma spp., Geotrichum spp., Cladosporium spp., and Penicillium spp. Description: Mold challenge study of processed cheese slices inoculated with a mold cocktail. In kind it is cell-based. On the procedure: In some approaches, the processed cheese includes an amount of natural antimycotic effective to prevent mold growth for at least about three months, in another aspect at least about four months, in another aspect at least about five months, in another aspect at least about six months, and in yet another aspect at least about seven months, when the processed cheese is stored at about 1 to about 10° C. The efficacy of the natamycin in the processed cheese product can be determined by conducting a mold challenge study, where samples of the processed cheese are inoculated with a known quantity of mold spores, such as 90 cfu/g or 500 cfu/g, and inspecting the samples for visible mold growth during storage at 40 to 45° F.
Natamycin (Natamax SF from Danisco) was incorporated into processed cheese (prior to the cooking step) at concentrations of 7 ppm and 15 ppm. The processed cheese was then submitted to a mold challenge study. The processed cheese was inoculated with a mold cocktail (spores in liquid media) of Phoma spp., Geotrichum spp., Cladosporium spp., and Penicillium spp. (which represent common types of mold) at 90 spores per 19 gram slice. The samples are inoculated by spreading the cocktail on top of cheese slices. A control was not inoculated. […] The detectable level of natamycin was determined by HPLC. […]

The test system of series [2] is mold. Description: Shelf life of processed cheese slices, visible mold during storage. Type of series: cell-based. Conditions: processed cheese slices containing about 4.8 ppm natamycin; stored at 45° F.; control without natamycin showed visible mold at three months. An excerpt:
Processed cheese slices were produced containing about 4.8 ppm natamycin (Natamax SF from Danisco).

The nature of series [3]: Detectable level of natamycin in processed cheese by HPLC during storage. In kind it is physicochemical. Conditions: for detectable natamycin concentration in the product: by six months, stored at 45° F.; for natamycin in processed cheese, on average: three days after producing the processed cheese, four samples. On the procedure: Natamycin (Natamax SF from Danisco) was incorporated into processed cheese (prior to the cooking step) at 15 ppm. Cultured dairy component containing nisin was incorporated into all products at 8 percent based on the total weight of the processed cheese. Samples of the processed cheese were inoculated at 100 cfu/g and 500 cfu/g. The detectable level of natamycin was determined by HPLC.

Setting [4] is: average of samples, dosage level 15 ppm, storage at 45° F.
[5] abbreviates: dosage level 15 ppm before cooking, 8 percent cultured dairy component containing nisin, storage at 45° F., HPLC, single samples.

Several values for one entry are separate records, joined by “and”; a condition that tells them apart may be missing. Identical values can stand only once.

`C[C@@H]1C/C=C/C=C/C=C/C=C/[C@H](O[C@@H]2O[C@H](C)[C@@H](O)[C@H](N)[C@@H]2O)C[C@@H]2O[C@](O)(C[C@@H](O)C[C@H]3O[C@@H]3/C=C/C(=O)O1)C[C@H](O)[C@H]2C(=O)O` [Natamycin, natamycin]: the “shelf life relative to control” value in series [1] (10 ppm and 15 ppm natamycin plus 8 percent cultured dairy component containing nisin, inoculated with 500 cfu/g or 9,500 spores per slice) is listed as “almost double that of control”. Moreover, in series [1] (processed cheese with 7 ppm or 15 ppm natamycin added before cooking, 90 spores per 19 gram slice, stored at 45° F.), the “extension of shelf life versus control that lacked mold inhibitor” value is “at least six months longer than a control”. For the same molecule, the “visible mold at five months of shelf life” value in series [2] is recorded as “no visible mold”. The “detectable natamycin concentration in the product” value in series [3] (7 ppm sample, HPLC) came to 0.62 ppm. Further, the “detectable natamycin concentration in the product” value in series [3] (15 ppm sample, HPLC) was determined as 4.89 ppm. In series [3] (setting [4]), the “Detected Natamycin Concentration (ppm) after Four Months, average” value is recorded as “Average = 3.39 ppm”; the “Detected Natamycin Concentration (ppm) after One Week, average” value is “Average = 4.68 ppm”; the “Detected Natamycin Concentration (ppm) after Two Months, average” value is “Average = 5.93 ppm”. In series [3] (setting [5]), the “Detected Natamycin Concentration (ppm) after Four Months” value was 3.07 ppm and 3.39 ppm and 3.64 ppm and 2.97 ppm and 3.37 ppm and 3.28 ppm and 3.14 ppm; the “Detected Natamycin Concentration (ppm) after One Week” value was 4.61 ppm and 4.63 ppm and 4.80 ppm; the “Detected Natamycin Concentration (ppm) after Three Months” value is 6.87 ppm and 6.34 ppm and 7.46 ppm and 6.13 ppm and 6.84 ppm and 6.78 ppm and 7.36 ppm; the “Detected Natamycin Concentration (ppm) after Two Months” value is 6.73 ppm and 4.62 ppm and 6.32 ppm and 5.34 ppm and 5.91 ppm and 6.81 ppm and 5.67 ppm. Besides, in series [3] (processed cheese with natamycin and cultured dairy component, HPLC), the “change of the detectable quantity of natamycin during storage” value was “increase in months 2 and 3 of storage and then decrease in month 4”. Also, the “natamycin in processed cheese, on average” value in series [3] (starting with 10 ppm, 8 percent cultured dairy component containing nisin) worked out at 2.8 ppm. Also, the “natamycin in processed cheese, on average” value in series [3] (starting with 15 ppm, 8 percent cultured dairy component containing nisin) is recorded as 4.9 ppm.
